Assay [1] has as its system cultured human mast cells (CHMC). Put plainly: CHMC low cell density IgE activation: tryptase assay. Type of assay: cell-based. Particulars: IgE activation. The procedure, abridged: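 Tryptase release, fluorogenic substrate, 30 min RT. Prior anti-IgE stimulation of CHMC, 30 min, 37 °C, after 1 hr preincubation at 1000–1500 cells/well in MT; unstimulated wells received MT.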

Assay [2] shares this test system. In words: CHMC low cell density ionomycin activation: tryptase assay. It counts as cell-based. Particulars: read-out: LD Tryptase, CHMC, Iono, 3 pt.
The mark [3] stands for this setting: Homo sapiens, Mast cell, low cell density CHMC, tryptase, 3 pt, read-out: LD Tryptase, CHMC, IgE, 3 pt.
The mark [4] stands for this setting: Homo sapiens, Mast cell, low cell density CHMC, tryptase, 3 pt.
The mark [5] stands for this setting: Homo sapiens, Mast cell, low cell density, 3 pt, read-out: LD Tryptase, CHMC, IgE, 3 pt.
The mark [6] stands for this setting: Homo sapiens, Mast cell, low cell density, 3 pt.
Setting [7] is: Homo sapiens, Mast cell, low cell density, 8 pt, read-out: LD Tryptase, CHMC, IgE, 8 pt.
The mark [8] stands for this setting: low cell density, 3 pt, read-out: LD Tryptase, CHMC, IgE, 3 pt.
Setting [9] is: Homo sapiens, Mast cell, low cell density CHMC, tryptase release, 3 pt, read-out: LD Tryptase, CHMC, IgE, 3 pt.
The mark [10] stands for this setting: Homo sapiens, Mast cell, low cell density CHMC, tryptase release, 8 pt, read-out: LD Tryptase, CHMC, IgE, 8 pt.
Where [11] appears, read: Homo sapiens, Mast cell, low cell density CHMC, tryptase release, 3 pt.
Where [12] appears, read: low cell density, 8 pt, read-out: LD Tryptase, CHMC, IgE, 8 pt.
[13] abbreviates: low cell density CHMC, tryptase readout, 3 pt, read-out: LD Tryptase, CHMC, IgE, 3 pt.
[14] abbreviates: low cell density CHMC, tryptase readout, 3 pt.

As for `CN(c1ccc2c(c1)OCCO2)c1nc(Nc2ccc(-c3ncco3)cc2)ncc1F` [Compound 416], the IC50 in assay [1] (setting [3]) is less than 10 µM; in assay [2] (setting [4]), more than 10 µM.

With `Fc1cnc(Nc2ccc(N3CCOCC3)cc2)nc1NC1CNC1` [Compound 1123], the IC50 was more than 10 µM in assay [1] (setting [3]) and less than 10 µM in assay [2] (setting [4]).

Regarding `CCn1ncc2cc(Nc3ncc(F)c(Nc4ccc5c(c4)NC(=O)C(C)(C)O5)n3)ccc21` [Compound 696, N4-(2,2-Dimethyl-3-oxo-4H-benz[1,4]oxazin-6-yl)-N2-(1-ethylindazol-5-yl)-5-fluoro-2,4-pyrimidinediamine], the IC50 was less than 10 µM in assay [1] (setting [3]); less than 10 µM in assay [1] (Homo sapiens, Mast cell, low cell density CHMC, tryptase, 8 pt, read-out: LD Tryptase, CHMC, IgE, 8 pt); less than 10 µM in assay [2] (setting [4]).

With `COC(=O)c1cc(Nc2ncc(F)c(Nc3ccc(OC)c(OC)c3)n2)cc(-c2ncco2)c1` [Compound 515, N4-(3,4-Dimethoxyphenyl)-5-fluoro-N2-[5-methoxycarbonyl-3-(oxazol-2-yl)phenyl]-2,4-pyrimidinediamine], the IC50 in assay [1] (setting [5]) was less than 10 µM; in assay [2] (setting [6]), more than 10 µM.

In the case of `CNC(=O)c1ccc(Nc2ncc(F)c(Nc3ccc4c(c3)NC(=O)C(C)(C)O4)n2)cc1Cl` [Compound 456, N2-[3-Chloro-4-(N-methylamino)carbonylphenyl]-N4-(2,2-dimethyl-3-oxo-4H-benz[1,4]oxazin-6-yl)-5-fluoro-2,4-pyrimidinediamine], the IC50 in assay [1] (setting [5]), in assay [1] (setting [7]) and in assay [2] (setting [6]) was less than 10 µM throughout.

With `CCOC(=O)C(C)(C)Oc1ccc(Nc2nc(Nc3ccc(Cl)c(C(=O)NC)c3)ncc2F)cc1Cl` [Compound 452, N4-[3-Chloro-4-(ethoxycarbonyl-1,1-dimethylmethyleneoxy)phenyl]-N2-[4-chloro-3-(N-methylamino)carbonylphenyl]-5-fluoro-2,4-pyrimidinediamine], the IC50 in assay [1] (setting [8]) was less than 10 µM; in assay [2] (low cell density, 3 pt) it was less than 10 µM.

For `CCOC(=O)c1cc2cccc(Nc3ncc(F)c(NCCO)n3)c2[nH]1` [Compound 489], the IC50 in assay [1] (setting [5]) and in assay [2] (setting [6]) was more than 10 µM in each case.

Consider `CNC(=O)COc1cccc(Nc2ncc(F)c(Nc3ccc4c(c3)NC(=O)CS4)n2)c1` [Compound 254, 5-Fluoro-N2-[3-(N-methylamino)carbonylmethyleneoxyphenyl]-N4-(3-oxo-2H,4H-benzo[1,4]thiazin-6-yl)-2,4-pyrimidinediamine], for which the IC50 in assay [1] (low cell density CHMC, tryptase release, 3 pt, read-out: LD Tryptase, CHMC, IgE, 3 pt) is less than 10 µM; in assay [1] (low cell density CHMC, tryptase release, 8 pt, read-out: LD Tryptase, CHMC, IgE, 8 pt) it was less than 10 µM; in assay [2] (low cell density CHMC, tryptase release, 3 pt), more than 10 µM.

In the case of `COc1c(C)cc(Nc2ncc(F)c(Nc3ccc4c(c3)OCCO4)n2)cc1Cl` [Compound 999], the IC50 in assay [1] (setting [5]), in assay [1] (setting [7]) and in assay [2] (setting [6]) was less than 10 µM throughout.

As to “(S)-5-Fluoro-N2-[4- (N-methoxycarbonylmethyleneamino)carbonylphenyl]-N4- (2-methyl-3-oxo-2H,4H-benz[1,4]oxazin-6-yl)-2,4-pyrimidinediamine [Compound 1271]”, the IC50 in assay [1] (low cell density CHMC, tryptase, 8 pt, read-out: LD Tryptase, CHMC, IgE, 8 pt) was less than 10 µM; in assay [2] (low cell density CHMC, tryptase, 3 pt), more than 10 µM.

Consider `C[C@@H]1Oc2ccc(Nc3nc(Nc4ccc(-c5ncco5)cc4)ncc3F)cc2NC1=O` [Compound 240], for which the values for the IC50 in assay [1] (setting [9]), in assay [1] (setting [10]) and in assay [2] (setting [11]) were less than 10 µM, less than 10 µM and more than 10 µM, respectively.

`C=CCNc1ncc(F)c(N(C)c2ccc3c(c2)OCCO3)n1` [Compound 506, N2-Allyl-N4-(3,4-ethylenedioxyphenyl)-5-fluoro-N4-methyl-2,4-pyrimidinediamine]: the IC50 in assay [1] (setting [5]) and in assay [2] (setting [6]) was more than 10 µM each time.

For the compound `COc1cc(C)c(Nc2ncc(F)c(Nc3ccc4c(c3)NC(=O)[C@H](C)O4)n2)cc1Cl` [Compound 214], the values for the IC50 in assay [1] (setting [9]), in assay [1] (setting [10]) and in assay [2] (setting [11]) were less than 10 µM, less than 10 µM and more than 10 µM, respectively.

Regarding `COc1ccc(Nc2ncc(F)c(Nc3ccc(OCCO)nc3)n2)cc1Cl` [Compound 505, N2-(3-Chloro-4-methoxyphenyl)-5-fluoro-N4-[2-(2-hydroxyethyleneoxy)pyrid-5-yl]-2,4-pyrimidinediamine], the IC50 in assay [1] (setting [8]) was less than 10 µM; in assay [1] (setting [12]) it was less than 10 µM; in assay [2] (low cell density, 3 pt), more than 10 µM.

Consider `CNC(=O)c1cc(Nc2ncc(F)c(N(C)c3ccc4c(c3)OCCO4)n2)ccc1Cl` [Compound 453, N2-[4-Chloro-3-(N-methylamino)carbonylphenyl]-N4-(3,4-ethylenedioxyphenyl)-5-fluoro-N4-methyl-4-pyrimidinediamine], for which the IC50 in assay [1] (setting [8]) is less than 10 µM; in assay [2] (low cell density, 3 pt) it was more than 10 µM.

Take `COC(=O)Cn1ccc2ccc(Nc3ncc(F)c(Nc4ccc(Cl)c(OC)c4)n3)cc21` [Compound 641, N4-(4-Chloro-3-methoxyphenyl)-5-fluoro-N2-[1-(methoxycarbonylmethylene)indol-6-yl]-2,4-pyrimidinediamine]: the IC50 was less than 10 µM in assay [1] (low cell density CHMC, tryptase release, 3 point, read-out: LD Tryptase, CHMC, IgE, 3 pt); less than 10 µM in assay [1] (low cell density CHMC, tryptase release, 8 point, read-out: LD Tryptase, CHMC, IgE, 8 pt); less than 10 µM in assay [2] (low cell density CHMC, tryptase release, 3 point).

`CCOC(=O)COc1c(C)cc(Nc2ncc(F)c(Nc3ccc4c(n3)NC(=O)C(C)(C)O4)n2)cc1Cl` [Compound 1042, N2-(3-Chloro-4-ethoxycarbonylmethyleneoxy-5-methylphenyl)-N4-(2,2-dimethyl-3-oxo-4H-5-pyrid[1,4]oxazin-6-yl)-5-fluoro-2,4-pyrimidinediamine]: the IC50 in assay [1] (setting [13]) and in assay [2] (setting [14]) was more than 10 µM throughout.

Regarding `C[C@@H]1Oc2ccc(Nc3nc(Nc4cccc(-c5cocn5)c4)ncc3F)cc2NC1=O` [Compound 251], the IC50 was less than 10 µM in assay [1] (setting [9]), less than 10 µM in assay [1] (setting [10]) and more than 10 µM in assay [2] (setting [11]).

Consider `CCOC(=O)N1CCN(c2cccc(Nc3ncc(F)c(N[C@H]4CCN(Cc5ccccc5)C4)n3)c2)CC1` [Compound 1187, (S)-N4-(1-Benzylpyrrolidin-3-yl)-N2-[3-(4-ethoxycarbonylpiperazino)phenyl]-5-fluoro-2,4-pyrimidinediamine], for which the results for the IC50 in assay [1] (setting [3]) and in assay [2] (setting [4]) were less than 10 µM and more than 10 µM, respectively.

Regarding `CC1(C)Oc2ccc(Nc3nc(Nc4cccc(-c5ncco5)c4)ncc3F)nc2NC1=O` [Compound 1028, N4-(2,2-Dimethyl-3-oxo-4H-5-pyrid[1,4]oxazin-6-yl)-5-fluoro-N2-[3-(oxazol-2-yl)phenyl]-2,4-pyrimidinediamine], the IC50 in assay [1] (setting [13]) was less than 10 µM; in assay [1] (low cell density CHMC, tryptase readout, 8 pt, read-out: LD Tryptase, CHMC, IgE, 8 pt), less than 10 µM; in assay [2] (setting [14]), more than 10 µM.

With `CN1CCOc2ccc(Nc3nc(Nc4cccc(-c5cnco5)c4)ncc3F)cc21` [Compound 236], the IC50 in assay [1] (setting [9]) is less than 10 µM; in assay [2] (setting [11]), more than 10 µM.

On to `Fc1cnc(Nc2cccc(-c3ncon3)c2)nc1Nc1ccc2c(c1)OCCO2` [Compound 512], for which the IC50 in assay [1] (setting [5]) is less than 10 µM; in assay [2] (setting [6]), more than 10 µM.

On to `CNC(=O)c1cc(Nc2ccnc(Nc3ccc4cc[nH]c4c3)n2)ccc1Cl` [Compound 479, N4-[4-Chloro-3-(N-methylamino)carbonylphenyl]-N2-(indol-6-yl)-2,4-pyrimidinediamine], for which the IC50 in assay [1] (setting [5]) was less than 10 µM; in assay [2] (setting [6]), more than 10 µM.

Regarding `Cc1cc(N(C)c2nc(Nc3ccc4[nH]ccc4c3)ncc2F)cc(C)c1Cl` [Compound 594], the IC50 in assay [1] (Homo sapiens, Mast cell, low cell density CHMC, tryptase release, 3 point, read-out: LD Tryptase, CHMC, IgE, 3 pt) was less than 10 µM; in assay [1] (Homo sapiens, Mast cell, low cell density CHMC, tryptase release, 8 point, read-out: LD Tryptase, CHMC, IgE, 8 pt) it was less than 10 µM; in assay [2] (Homo sapiens, Mast cell, low cell density CHMC, tryptase release, 3 point), less than 10 µM.

As for `COc1cc(Nc2ncc(F)c(Nc3ccc(OCCO)nc3)n2)cc(OC)c1` [Compound 503, N2-(3,5-Dimethoxyphenyl)-5-fluoro-N4-[2-(2-hydroxyethyleneoxy)pyrid-5-yl]-2,4-pyrimidinediamine], the IC50 in assay [1] (setting [8]) is less than 10 µM; in assay [1] (setting [12]), less than 10 µM; in assay [2] (low cell density, 3 pt), more than 10 µM.

These data come from patent publication US20220073536A1 (Rigel Pharmaceuticals, Inc., priority 2003, published 2022).
